Source: ChEMBL document CHEMBL4834415, “Distinct Lugdunins from a New Efficient Synthesis and Broad Exploitation of Its MRSA-Antimicrobial Structure” (2021)
Values after ≈ are worked out from the molar mass of the structure shown.

Test system: Staphylococcus aureus
Assay: Antibacterial activity against methicillin-resistant Staphylococcus aureus USA300 LAC assessed as reduction in bacterial growth incubated for 21 hrs by broth dilution method
Type: functional

Compound | MIC [µM]
CC(C)C[C@H]1NC(=O)[C@H](Cc2ccccc2)NC(=O)[C@@H](C(C)C)NC(=O)[C@@H]2CSC(N2)[C@H](C(C)C)NC(=O)[C@@H](C(C)C)NC(=O)[C@H](C(C)C)NC1=O | 16.8 (≈ 12.5 µg/mL)
CC(C)C[C@H]1NC(=O)[C@H](Cc2ccncc2)NC(=O)[C@@H](C(C)C)NC(=O)[C@@H]2CSC(N2)[C@H](C(C)C)NC(=O)[C@@H](C(C)C)NC(=O)[C@H](C(C)C)NC1=O | 134 (≈ 100 µg/mL)
CC(C)C[C@H]1NC(=O)[C@H](Cc2c3ccccc3cc3ccccc23)NC(=O)[C@@H](C(C)C)NC(=O)[C@@H]2CSC(N2)[C@H](C(C)C)NC(=O)[C@@H](C(C)C)NC(=O)[C@H](C(C)C)NC1=O | 7.4 (≈ 6.25 µg/mL)
CC[C@H](C)[C@H]1NC(=O)[C@@H]2CSC(N2)[C@H](C(C)C)NC(=O)[C@@H](C(C)C)NC(=O)[C@H](C(C)C)NC(=O)[C@@H](CC(C)C)NC(=O)[C@H](Cc2c[nH]c3ccccc23)NC1=O | 7.9 (≈ 6.3 µg/mL)
C#CC[C@H]1NC(=O)[C@H](Cc2c[nH]c3ccccc23)NC(=O)[C@@H](C(C)C)NC(=O)[C@@H]2CSC(N2)[C@H](C(C)C)NC(=O)[C@@H](Cc2c[nH]c3ccccc23)NC(=O)[C@H](C(C)C)NC1=O | 58.8 (≈ 50.1 µg/mL)
CC(C)C[C@H]1NC(=O)[C@H](Cc2c[nH]c3ccccc23)NC(=O)[C@@H](Cc2c[nH]c3ccccc23)NC(=O)[C@@H]2CSC(N2)[C@H](C(C)C)NC(=O)[C@@H](C(C)C)NC(=O)[C@H](C(C)C)NC1=O | 28.8 (≈ 25.1 µg/mL)
